# Measured values as given in ChEMBL document CHEMBL1201862, “PubChem BioAssay data set” (2004).
#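 Dose response: 5 concentrations. Exposure: 48 h. Format: 96-well plates. Endpoint: linear interpolation; highest concentration if not reached. The concentration for 50% growth inhibition is given as GI50.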 Activity calls are given as the source filed them. No stated cut-off is given here; in the data, active = GI50 up to about 1.1 µM and inactive = higher.
# Columns and labels:
# Assay in all cases: DTP human tumour cell line panel, 48 h
# UACC-257 = system: UACC-257
# ACHN = system: ACHN
# SF-295 = system: SF-295
# HOP-92 = system: HOP-92
# 786-0 = system: 786-0
# SF-268 = system: SF-268
# IGROV-1 = system: IGROV-1
# KM-20L2 = system: KM-20L2
# M14 = system: M14
# NCI-H522 = system: NCI-H522
# LOX IMVI = system: LOX IMVI
# SNB-75 = system: SNB-75
# MOLT-4 = system: MOLT-4
# SF-539 = system: SF-539
# SNB-78 = system: SNB-78
# U-251 = system: U-251
# HT-29 = system: HT-29
# TK-10 = system: TK-10
# UO-31 = system: UO-31
# NCI-H460 = system: NCI-H460
# KM12 = system: KM12
# NCI-H23 = system: NCI-H23
# OVCAR-4 = system: OVCAR-4
# LXFL 529 = system: LXFL 529
# A549 = system: A549
# SK-MEL-28 = system: SK-MEL-28
# UACC-62 = system: UACC-62
# SW-620 = system: SW-620
# OVCAR-3 = system: OVCAR-3
# HCT-116 = system: HCT-116
# K562 = system: K562
# OVCAR-5 = system: OVCAR-5
# SK-OV-3 = system: SK-OV-3
# DLD-1 = system: DLD-1
# SNB-19 = system: SNB-19
# COLO 205 = system: COLO 205
# NCI-H226 = system: NCI-H226
# OVCAR-8 = system: OVCAR-8
# M19-MEL = system: M19-MEL
# HOP-62 = system: HOP-62
# CCRF-CEM = system: CCRF-CEM
# A498 = system: A498
# HCC 2998 = system: HCC 2998
# MDA-N = system: MDA-N
# CAKI-1 = system: CAKI-1
# PC-3 = system: PC-3
# SR = system: SR
# RPMI-8226 = system: RPMI-8226
# BT-549 = system: BT-549
# Malme-3M = system: Malme-3M
# Hs-578T = system: Hs-578T
# SK-MEL-2 = system: SK-MEL-2
# EKVX = system: EKVX
# HCT-15 = system: HCT-15
# DU-145 = system: DU-145
# MDA-MB-231 = system: MDA-MB-231
# NCI/ADR-RES = system: NCI/ADR-RES
# HL-60 = system: HL-60
# SK-MEL-5 = system: SK-MEL-5
# MDA-MB-435 = system: MDA-MB-435
# SN12C = system: SN12C
# RXF 393 = system: RXF 393
# T47D = system: T47D
# MCF7 = system: MCF7
structure (smiles),measurement,setting,value
Oc1ccccc1-c1nnc(S)n1/N=C/c1ccc(-c2ccc(Br)cc2)o1,GI50,UACC-257,24.3 µM (inactive)
same,GI50,ACHN,29.6 µM (inactive)
same,GI50,SF-295,60.4 µM (inactive)
same,GI50,HOP-92,18.4 µM (inactive)
same,GI50,786-0,39.2 µM (inactive)
same,GI50,SF-268,40.3 µM (inactive)
same,GI50,IGROV-1,29.2 µM (inactive)
same,GI50,KM-20L2,35.5 µM (inactive)
same,GI50,M14,41.7 µM (inactive)
same,GI50,NCI-H522,60.4 µM (inactive)
same,GI50,LOX IMVI,23.7 µM (inactive)
same,GI50,SNB-75,32.7 µM (inactive)
same,GI50,MOLT-4,25.4 µM (inactive)
same,GI50,SF-539,33 µM (inactive)
same,GI50,SNB-78,23.6 µM (inactive)
same,GI50,U-251,25.9 µM (inactive)
same,GI50,HT-29,51.3 µM (inactive)
same,GI50,TK-10,15.2 µM (inactive)
same,GI50,UO-31,28 µM (inactive)
same,GI50,NCI-H460,95.9 µM (inactive)
same,GI50,KM12,34.7 µM (inactive)
same,GI50,NCI-H23,20.5 µM (inactive)
same,GI50,OVCAR-4,15.6 µM (inactive)
same,GI50,LXFL 529,22 µM (inactive)
same,GI50,A549,48.1 µM (inactive)
same,GI50,SK-MEL-28,56.5 µM (inactive)
same,GI50,UACC-62,13.1 µM (inactive)
same,GI50,SW-620,38.6 µM (inactive)
same,GI50,OVCAR-3,24.2 µM (inactive)
same,GI50,HCT-116,33.7 µM (inactive)
same,GI50,K562,32.1 µM (inactive)
same,GI50,OVCAR-5,> 100 µM (inactive)
same,GI50,SK-OV-3,31 µM (inactive)
same,GI50,DLD-1,34 µM (inactive)
same,GI50,SNB-19,24.4 µM (inactive)
same,GI50,COLO 205,39.6 µM (inactive)
same,GI50,NCI-H226,22.9 µM (inactive)
same,GI50,OVCAR-8,34 µM (inactive)
same,GI50,M19-MEL,42.5 µM (inactive)
same,GI50,HOP-62,29.9 µM (inactive)
N#Cc1c(N2CCCC2)ncn(-c2ccccc2)c1=S,GI50,CCRF-CEM,> 100 µM (inactive)
same,GI50,A498,> 100 µM (inactive)
same,GI50,HCC 2998,> 100 µM (inactive)
same,GI50,UACC-257,> 100 µM (inactive)
same,GI50,ACHN,> 100 µM (inactive)
same,GI50,MDA-N,> 100 µM (inactive)
same,GI50,SF-295,> 100 µM (inactive)
same,GI50,HOP-92,> 100 µM (inactive)
same,GI50,CAKI-1,> 100 µM (inactive)
same,GI50,786-0,> 100 µM (inactive)
same,GI50,SF-268,> 100 µM (inactive)
same,GI50,PC-3,> 100 µM (inactive)
same,GI50,IGROV-1,> 100 µM (inactive)
same,GI50,SR,> 100 µM (inactive)
same,GI50,M14,> 100 µM (inactive)
same,GI50,RPMI-8226,> 100 µM (inactive)
same,GI50,NCI-H522,> 100 µM (inactive)
same,GI50,LOX IMVI,> 100 µM (inactive)
same,GI50,BT-549,> 100 µM (inactive)
same,GI50,Malme-3M,> 100 µM (inactive)
same,GI50,Hs-578T,> 100 µM (inactive)
same,GI50,SNB-75,94.8 µM (inactive)
same,GI50,MOLT-4,> 100 µM (inactive)
same,GI50,SF-539,> 100 µM (inactive)
same,GI50,SK-MEL-2,> 100 µM (inactive)
same,GI50,U-251,> 100 µM (inactive)
same,GI50,HT-29,> 100 µM (inactive)
same,GI50,EKVX,> 100 µM (inactive)
same,GI50,TK-10,> 100 µM (inactive)
same,GI50,HCT-15,> 100 µM
same,GI50,UO-31,> 100 µM (inactive)
same,GI50,DU-145,> 100 µM (inactive)
same,GI50,NCI-H460,> 100 µM (inactive)
same,GI50,KM12,> 100 µM (inactive)
same,GI50,NCI-H23,> 100 µM (inactive)
same,GI50,MDA-MB-231,> 100 µM (inactive)
same,GI50,OVCAR-4,> 100 µM (inactive)
same,GI50,NCI/ADR-RES,> 100 µM (inactive)
same,GI50,A549,> 100 µM (inactive)
same,GI50,SK-MEL-28,> 100 µM (inactive)
same,GI50,UACC-62,19.5 µM (inactive)
same,GI50,SW-620,> 100 µM (inactive)
same,GI50,OVCAR-3,> 100 µM (inactive)
same,GI50,HCT-116,> 100 µM (inactive)
same,GI50,K562,> 100 µM (inactive)
same,GI50,HL-60,> 100 µM (inactive)
same,GI50,OVCAR-5,> 100 µM (inactive)
same,GI50,SK-OV-3,> 100 µM (inactive)
same,GI50,SK-MEL-5,> 100 µM (inactive)
same,GI50,MDA-MB-435,> 100 µM (inactive)
same,GI50,SN12C,> 100 µM (inactive)
same,GI50,RXF 393,> 100 µM (inactive)
same,GI50,T47D,> 100 µM (inactive)
same,GI50,SNB-19,> 100 µM (inactive)
same,GI50,COLO 205,> 100 µM (inactive)
same,GI50,NCI-H226,> 100 µM (inactive)
same,GI50,OVCAR-8,> 100 µM (inactive)
same,GI50,MCF7,> 100 µM (inactive)
same,GI50,HOP-62,> 100 µM (inactive)
COc1ccccc1CC1(O)OC(=O)c2ccccc21 (stereo not drawn),GI50,CCRF-CEM,> 100 µM (inactive)
same,GI50,A498,> 100 µM (inactive)
same,GI50,HCC 2998,> 100 µM (inactive)
same,GI50,UACC-257,> 100 µM (inactive)
same,GI50,ACHN,> 100 µM (inactive)
same,GI50,MDA-N,> 100 µM (inactive)
same,GI50,SF-295,> 100 µM (inactive)
same,GI50,HOP-92,> 100 µM (inactive)
same,GI50,CAKI-1,> 100 µM (inactive)
same,GI50,786-0,> 100 µM (inactive)
same,GI50,SF-268,> 100 µM (inactive)
same,GI50,PC-3,> 100 µM (inactive)
same,GI50,IGROV-1,> 100 µM (inactive)
same,GI50,SR,> 100 µM (inactive)
same,GI50,M14,> 100 µM (inactive)
same,GI50,RPMI-8226,> 100 µM (inactive)
same,GI50,NCI-H522,> 100 µM (inactive)
same,GI50,LOX IMVI,> 100 µM (inactive)
same,GI50,BT-549,> 100 µM (inactive)
same,GI50,Malme-3M,> 100 µM (inactive)
same,GI50,Hs-578T,> 100 µM (inactive)
same,GI50,SNB-75,> 100 µM (inactive)
same,GI50,MOLT-4,> 100 µM (inactive)
same,GI50,SF-539,> 100 µM (inactive)
same,GI50,SK-MEL-2,> 100 µM (inactive)
same,GI50,U-251,> 100 µM (inactive)
same,GI50,HT-29,> 100 µM (inactive)
same,GI50,EKVX,> 100 µM (inactive)
same,GI50,TK-10,> 100 µM (inactive)
same,GI50,HCT-15,> 100 µM
same,GI50,UO-31,> 100 µM (inactive)
same,GI50,DU-145,> 100 µM (inactive)
same,GI50,NCI-H460,> 100 µM (inactive)
same,GI50,KM12,> 100 µM (inactive)
same,GI50,NCI-H23,> 100 µM (inactive)
same,GI50,MDA-MB-231,> 100 µM (inactive)
same,GI50,OVCAR-4,> 100 µM (inactive)
same,GI50,NCI/ADR-RES,> 100 µM (inactive)
same,GI50,A549,> 100 µM (inactive)
same,GI50,SK-MEL-28,> 100 µM (inactive)
same,GI50,UACC-62,> 100 µM (inactive)
same,GI50,SW-620,> 100 µM (inactive)
same,GI50,OVCAR-3,> 100 µM (inactive)
same,GI50,HCT-116,> 100 µM (inactive)
same,GI50,K562,> 100 µM (inactive)
same,GI50,HL-60,> 100 µM (inactive)
same,GI50,OVCAR-5,> 100 µM (inactive)
same,GI50,SK-OV-3,> 100 µM (inactive)
same,GI50,SK-MEL-5,> 100 µM (inactive)
same,GI50,MDA-MB-435,> 100 µM (inactive)
same,GI50,SN12C,> 100 µM (inactive)
same,GI50,RXF 393,> 100 µM (inactive)
same,GI50,T47D,> 100 µM (inactive)
same,GI50,SNB-19,> 100 µM (inactive)
same,GI50,COLO 205,> 100 µM (inactive)
same,GI50,NCI-H226,> 100 µM (inactive)
same,GI50,OVCAR-8,> 100 µM (inactive)
same,GI50,MCF7,> 100 µM (inactive)
same,GI50,HOP-62,> 100 µM (inactive)
